Results on 10 compounds are retold here after patent US6960597B2, “Aza-bridged-bicyclic amino acid derivatives as α4 integrin antagonists” (Orth-McNeil Pharmaceutical, Inc., priority 2000, dated 2005).

The target in one test is T1, human α4β7 (Homo sapiens, UniProt P13612+P26010).
T1 construct: expressed in transfected cells
T1 sequence (P13612 34-1032): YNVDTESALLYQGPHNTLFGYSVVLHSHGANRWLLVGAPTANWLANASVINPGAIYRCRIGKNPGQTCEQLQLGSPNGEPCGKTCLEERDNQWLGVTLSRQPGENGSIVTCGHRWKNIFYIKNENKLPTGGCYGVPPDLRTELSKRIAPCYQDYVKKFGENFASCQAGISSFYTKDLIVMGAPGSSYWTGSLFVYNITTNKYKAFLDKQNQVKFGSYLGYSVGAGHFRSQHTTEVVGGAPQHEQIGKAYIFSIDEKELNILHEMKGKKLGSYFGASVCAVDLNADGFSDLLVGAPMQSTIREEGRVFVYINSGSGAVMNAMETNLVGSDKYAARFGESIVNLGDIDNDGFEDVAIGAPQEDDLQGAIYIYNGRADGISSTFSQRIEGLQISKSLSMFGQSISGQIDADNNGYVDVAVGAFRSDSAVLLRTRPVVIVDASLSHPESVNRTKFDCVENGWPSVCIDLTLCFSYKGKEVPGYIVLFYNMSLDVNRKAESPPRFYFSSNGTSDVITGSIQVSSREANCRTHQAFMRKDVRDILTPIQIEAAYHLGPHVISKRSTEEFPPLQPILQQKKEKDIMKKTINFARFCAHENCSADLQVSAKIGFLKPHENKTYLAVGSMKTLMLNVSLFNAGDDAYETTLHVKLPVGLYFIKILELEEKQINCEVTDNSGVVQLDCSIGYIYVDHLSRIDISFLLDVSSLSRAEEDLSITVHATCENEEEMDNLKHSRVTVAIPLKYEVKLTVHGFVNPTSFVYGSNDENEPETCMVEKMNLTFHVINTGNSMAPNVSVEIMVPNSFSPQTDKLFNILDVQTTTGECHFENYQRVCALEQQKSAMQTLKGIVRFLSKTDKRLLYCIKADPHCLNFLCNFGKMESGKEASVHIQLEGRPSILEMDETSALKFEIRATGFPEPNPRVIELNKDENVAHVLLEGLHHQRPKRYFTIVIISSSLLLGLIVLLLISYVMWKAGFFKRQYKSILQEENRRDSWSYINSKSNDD
T1 sequence (P26010 20-798): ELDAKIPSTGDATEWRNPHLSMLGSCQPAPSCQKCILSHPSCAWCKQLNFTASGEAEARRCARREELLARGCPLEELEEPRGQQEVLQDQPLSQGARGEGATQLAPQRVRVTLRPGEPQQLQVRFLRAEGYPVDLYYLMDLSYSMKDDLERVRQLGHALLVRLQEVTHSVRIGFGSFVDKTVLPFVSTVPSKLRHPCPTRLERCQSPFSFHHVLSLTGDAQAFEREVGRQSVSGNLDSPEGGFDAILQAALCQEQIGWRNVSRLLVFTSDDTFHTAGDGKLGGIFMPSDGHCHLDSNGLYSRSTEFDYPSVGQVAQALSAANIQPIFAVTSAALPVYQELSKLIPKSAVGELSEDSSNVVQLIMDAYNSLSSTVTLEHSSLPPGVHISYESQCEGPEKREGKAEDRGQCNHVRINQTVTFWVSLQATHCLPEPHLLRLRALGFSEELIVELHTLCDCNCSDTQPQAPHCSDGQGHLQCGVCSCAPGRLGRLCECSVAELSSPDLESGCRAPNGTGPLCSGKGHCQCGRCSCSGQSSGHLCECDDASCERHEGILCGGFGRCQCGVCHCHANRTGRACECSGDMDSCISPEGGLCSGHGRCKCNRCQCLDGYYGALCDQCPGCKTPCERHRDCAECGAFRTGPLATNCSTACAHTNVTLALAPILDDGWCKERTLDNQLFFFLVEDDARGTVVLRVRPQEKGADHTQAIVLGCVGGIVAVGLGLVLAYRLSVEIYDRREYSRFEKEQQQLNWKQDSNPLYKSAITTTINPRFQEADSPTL
Briefly: α4β7-K562 Cell Adhesion Assay (α4β7 Mediated Adhesion/VCAM-1). Type of test: cell-based. In a few lines: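 K562 cells stably expressing human α4β7, labelled with 5 μM Calcein AM, adhered for 1 h at room temperature to plates coated with recombinant hVCAM-1 (4.0 μg/mL) in the presence of compound. After washing, cells were lysed in Tris/SDS. Bound cells were read by fluorescence at 485/530 nm.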

A further test has as its target T2, α4β1 integrin receptor (Homo sapiens, UniProt P05556+P13612).
T2 construct: Ramos Cell Adhesion Assay (α4β1 Mediated Adhesion/VCAM-1); endogenous in cells; host or cells: Ramos cells
The test can be described thus: Ramos Cell Adhesion Assay (α4β1 Mediated Adhesion/VCAM-1). It is filed as cell-based. In a few lines: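 Plates coated overnight at 4° C with recombinant hVCAM-1 (4.0 μg/mL, pH 9.0), then blocked with PBS/1% BSA. Ramos cells labelled with 5 μM Calcein AM adhered 1 h at room temperature with compound; after washing, cells were lysed in SDS and fluorescence read at 485/530 nm.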

Where [1] appears, read: Table I, racemic mixtures and resolved (S,S) and (R,S) diastereomers, read-out: Antagonist IC50 Activity α4β7.
Setting [2] is: Table I, racemic mixtures and resolved (S,S) and (R,S) diastereomers, read-out: Antagonist IC50 Activity α4β1.
Setting [3] is: Table III, read-out: Inhibition of Binding of Ramos Cells to Immobilized VCAM-1 IC50.
[4] abbreviates: Table IV, read-out: Inhibition of Binding of K562 Cells to Immobilized VCAM-1 IC50.
Where [5] appears, read: Table IV, μM, read-out: Inhibition of Binding of K562 Cells to Immobilized VCAM-1 IC50.

Where two headings read alike, the source gives them in different places.

T2 sequence (P05556 21-798, one chain of several): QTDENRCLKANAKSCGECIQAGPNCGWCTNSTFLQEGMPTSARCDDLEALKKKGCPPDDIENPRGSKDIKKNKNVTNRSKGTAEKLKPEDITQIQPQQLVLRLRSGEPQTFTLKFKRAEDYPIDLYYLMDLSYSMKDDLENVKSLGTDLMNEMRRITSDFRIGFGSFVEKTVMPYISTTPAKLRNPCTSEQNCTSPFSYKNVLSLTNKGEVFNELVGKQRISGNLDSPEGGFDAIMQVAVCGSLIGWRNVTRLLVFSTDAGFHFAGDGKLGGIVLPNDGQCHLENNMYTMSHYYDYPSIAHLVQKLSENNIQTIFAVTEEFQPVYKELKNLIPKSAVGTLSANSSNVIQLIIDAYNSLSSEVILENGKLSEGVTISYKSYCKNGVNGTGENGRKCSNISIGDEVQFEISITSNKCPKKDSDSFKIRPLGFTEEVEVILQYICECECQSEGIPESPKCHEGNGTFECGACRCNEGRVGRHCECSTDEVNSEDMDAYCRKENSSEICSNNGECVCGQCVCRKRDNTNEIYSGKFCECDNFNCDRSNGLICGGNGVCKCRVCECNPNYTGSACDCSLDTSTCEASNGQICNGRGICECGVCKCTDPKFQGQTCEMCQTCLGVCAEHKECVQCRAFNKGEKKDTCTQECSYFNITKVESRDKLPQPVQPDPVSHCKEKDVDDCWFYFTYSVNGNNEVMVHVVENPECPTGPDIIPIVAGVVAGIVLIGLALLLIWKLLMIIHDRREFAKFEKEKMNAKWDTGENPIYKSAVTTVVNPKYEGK

With `COc1cccc(OC)c1-c1ccc(C[C@H](NC(=O)[C@H]2C3CCC(CC3)N2S(=O)(=O)c2ccc(C)cc2)C(=O)O)cc1` [Cpd 18a, 4-(2,6-dimethoxyphenyl)-N-[[(3R)-2-[(4-methylphenyl)sulfonyl]-2-azabicyclo[2.2.2]oct-3-yl]carbonyl]-L-phenylalanine], the IC50 on human α4β7 (setting [1]) was 9 µM; on α4β1 integrin receptor (setting [2]), 0.857 µM; at α4β1 integrin receptor (setting [3]) it was 0.857 µM.
Consider `O=C(Nc1ccc(C[C@H](NC(=O)C2C3CCC(CC3)N2S(=O)(=O)c2cccs2)C(=O)O)cc1)c1c(Cl)cncc1Cl` (mixture of isomers) [Cpd 71, 4-[[(3,5-dichloro-4-pyridinyl)carbonyl]amino]-N-[[2-(2-thienylsulfonyl)-2-azabicyclo[2.2.2]oct-3-yl]carbonyl]-L-phenylalanine], for which the IC50 was 0.03 µM at human α4β7 (setting [1]), 0.009 µM at α4β1 integrin receptor (setting [2]) and 0.007 µM on α4β1 integrin receptor (setting [3]).
Consider `Cc1ccc(S(=O)(=O)N2C3CCC(CC3)C2C(=O)N[C@@H](Cc2ccc(NC(=O)c3c(F)cccc3F)cc2)C(=O)O)cc1` (stereo partly drawn) [Cpd 11, 4-[(2,6-difluorobenzoyl)amino]-N-[[2-[(4-methylphenyl)sulfonyl]-2-azabicyclo[2.2.2]oct-3-yl]carbonyl]-L-phenylalanine], for which the half-inhibitory concentration (IC50) at human α4β7 (setting [4]) was found to be 1.49 µM; at α4β1 integrin receptor (setting [3]) it was 0.179 µM.
`Cc1ccc(S(=O)(=O)N2C3CCC(CC3)C2C(=O)N[C@@H](Cc2ccc(NC(=O)c3ccccc3OC(F)(F)F)cc2)C(=O)O)cc1` (stereo partly drawn) [Cpd 13]: the IC50 on human α4β7 (setting [5]) was above 10 µM; at α4β1 integrin receptor (setting [3]) it was 0.119 µM.
`CN(C(=O)C1C2CCC(CC2)N1S(=O)(=O)c1ccccc1)[C@@H](Cc1ccc(OCc2c(Cl)cccc2Cl)cc1)C(=O)O` (stereo partly drawn) [Cpd 38, O-[(2,6-dichlorophenyl)methyl]-methyl-N-[[2-(phenylsulfonyl)-2-azabicyclo[2.2.2]oct-3-yl]carbonyl]tyrosine]: the half-inhibitory concentration (IC50) was above 10 µM on human α4β7 (setting [5]) and above 5 µM at α4β1 integrin receptor (Table III, μM, read-out: Inhibition of Binding of Ramos Cells to Immobilized VCAM-1 IC50).
Take `COc1cccc(OC)c1C(=O)Nc1ccc(C[C@H](NC(=O)C2C3CCC(CC3)N2S(=O)(=O)c2ccc(F)cc2)C(=O)O)cc1` (stereo partly drawn) [Cpd 55, 4-[(2,6-dimethoxybenzoyl)amino]-N-[[2-[(4-fluorophenyl)sulfonyl]-2-azabicyclo[2.2.2]oct-3-yl]carbonyl]-L-phenylalanine]: the concentration for half-maximal inhibition (IC50) is 0.091 µM at human α4β7 (setting [4]) and 0.303 µM on α4β1 integrin receptor (setting [3]).
On to `O=C(N[C@@H](Cc1ccc(OCc2c(Cl)cccc2Cl)cc1)C(=O)O)C1C2C=CC(CC2)N1S(=O)(=O)c1ccccc1` (stereo partly drawn) [Cpd 40, O-[(2,6-dichlorophenyl)methyl]-N-[[2-(phenylsulfonyl)-2-azabicyclo[2.2.2]oct-5-en-3-yl]carbonyl]-L-tyrosine], for which the figures for the concentration for half-maximal inhibition (IC50) at human α4β7 (setting [4]) and at α4β1 integrin receptor (setting [3]) were 2.51 µM and 0.293 µM, respectively.
In the same order, the values of `O=C(Nc1ccc(C[C@H](NC(=O)[C@@H]2C3CCC(CC3)N2S(=O)(=O)c2ccccc2)C(=O)O)cc1)C1CC1` [Cpd 67, 4-[(cyclopropylcarbonyl)amino]-N-[[(3S)-2-(phenylsulfonyl)-2-azabicyclo[2.2.2]oct-3-yl]carbonyl]-L-phenylalanine] are 0.683 µM and 0.628 µM.
Consider `O=C(Nc1ccc(C[C@H](NC(=O)[C@@H]2C3CCC(C3)N2S(=O)(=O)c2ccccc2)C(=O)O)cc1)c1c(F)cccc1F` (stereo partly drawn) [Cpd 5a, 4-[(2,6-difluorobenzoyl)amino]-N-[[(3S)-2-(phenylsulfonyl)-2-azabicyclo[2.2.1]hept-3-yl]carbonyl]-L-phenylalanine], for which the half-maximal inhibitory concentration (IC50) on human α4β7 (setting [1]) is 0.062 µM; on α4β1 integrin receptor (setting [2]) it was 0.081 µM; at α4β1 integrin receptor (setting [3]) it was 0.081 µM.
As for `O=C(Nc1ccc(C[C@H](NC(=O)[C@@H]2C3CCC(C3)N2S(=O)(=O)c2ccccc2)C(=O)O)cc1)c1c(Cl)cccc1Cl` (stereo partly drawn) [Cpd 16a, 4-[(2,6-dichlorobenzoyl)amino]-N-[[(3S)-2-(phenylsulfonyl)-2-azabicyclo[2.2.1]hept-3-yl]carbonyl]-L-phenylalanine], the figures for the 50% inhibitory concentration (IC50) at human α4β7 (setting [1]), on α4β1 integrin receptor (setting [2]) and at α4β1 integrin receptor (setting [3]) were 2.09 µM, 0.153 µM and 0.153 µM, respectively.

A word on the IC50: it is the midpoint of a concentration-inhibition curve.
